Laboratory results taken from patent US10519154B2, “7-substituted 1-pyridyl-naphthyridine-3-carboxylic acid amides and use thereof” (Bayer Pharma Aktiengesellschaft, priority 2016, dated 2019).

Experiments:
[1] = target: T1, human M2 receptor (Homo sapiens, UniProt P08172); test: Functional M2-GIRK1/4 activation test: positive cooperativity (alpha factor); details: shift of acetylcholine dose-response curve (Allosteric EC50 shift); CHO-DUKX-M2-GIRK cells
T1 sequence (P08172 1-466): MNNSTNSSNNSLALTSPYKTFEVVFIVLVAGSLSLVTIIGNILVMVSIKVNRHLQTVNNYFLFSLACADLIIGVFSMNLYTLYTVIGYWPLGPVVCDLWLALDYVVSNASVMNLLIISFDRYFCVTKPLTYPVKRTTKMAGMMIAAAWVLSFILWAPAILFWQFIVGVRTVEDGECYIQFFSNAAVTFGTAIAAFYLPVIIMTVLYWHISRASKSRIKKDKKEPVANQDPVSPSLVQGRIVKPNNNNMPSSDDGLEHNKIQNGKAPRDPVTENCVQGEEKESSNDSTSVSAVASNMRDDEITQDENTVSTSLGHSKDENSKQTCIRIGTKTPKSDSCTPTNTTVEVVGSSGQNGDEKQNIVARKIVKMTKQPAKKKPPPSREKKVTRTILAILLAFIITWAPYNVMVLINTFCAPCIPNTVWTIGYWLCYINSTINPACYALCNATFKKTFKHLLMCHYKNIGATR
Description: The binding of orthosteric agonists (endogenous ligand: acetylcholine) to the M2 receptor leads to receptor activation or a change in conformation of the receptor in the manner of a shift in equilibrium in favor of the active receptor conformation.
The agonist-induced change in conformation of the M2 receptor results in a Gαi protein activation. […] Under physiological conditions, the result is then a selective efflux of potassium from the cell along the electrochemical gradient. […] The extent of hyperpolarization can therefore be regarded as a measure of the activation of the M2 receptor.
The test cell used is a recombinant CHO-DUKX cell line which has been stably transfected with cDNA coding for the human M2 receptor and with cDNA coding for both GIRK1/4 subunits (CHO-DUKX-M2-GIRK). The transmembrane potential, or the relative changes in the transmembrane potential as a function of substance addition or M2 activation, is determined by means of a voltage-sensitive dye (FLIPR Membrane Potential Assay Kit Blue, Molecular Devices #R8034) and the measurement of cell fluorescence using a proprietary fluorescence imaging instrument.
In accordance with the desired test concentrations, the substances were pre-diluted in loading buffer (see above).
The sowing medium consisted of MEM alpha medium (supplemented with 5% FCS, 2% Glutamax, no genticin).
For the particular measurement, the medium was removed and the cells were laden with the voltage-sensitive dye for at least 6 min at room temperature (30 μl of loading buffer per 384-well). This was followed, in a first measurement, by the determination of the resting transmembrane potential for a period of 5 sec in 1 sec increments. Thereafter, 10 μl in each case of the test substances diluted in loading buffer are added, followed by a second measurement to determine the transmembrane potential for a period of 50 sec in 1 sec increments.
Finally, the cells are admixed with 10 μl of agonist solution (acetylcholine dissolved in loading buffer). In contrast to the EC50 determination of the test substances (see B-1.1), however, this is not done using one acetylcholine concentration; instead, every concentration of the test substance is combined with an acetylcholine 8-point dose-response curve. […] The M2-mediated GIRK1/4 activation or hyperpolarization is then monitored in a third measurement over a period of 60 sec in 1 sec increments. The shift in the acetylcholine dose-response curve in the presence of increasing concentrations of the test substance is analyzed and quantified by means of GraphPad PRISM (Allosteric EC50 shift). […] Positive cooperativity is the hallmark of a positive allosteric modulator. […] The greater the magnitude of the cc value, the greater the extent of cooperativity between orthosteric and allosteric.

[2] = target: T1, human M2 receptor; test: Functional M2-GIRK1/4 activation test: allosteric potency (EC50) and efficiency; details: for EC50: Receptor activity EC50, CHO-DUKX-M2-GIRK cells, acetylcholine at EC20, in some cases mean of two or more determinations; for Emax: read-out: Efficiency, boosting of the acetylcholine effect at EC20 acetylcholine concentration; for Emax / Efficiency: CHO-DUKX-M2-GIRK cells; for Efficiency: boosting of the acetylcholine effect at EC20 acetylcholine concentration

Row | SMILES | Cooperativity (alpha factor) [1] | EC50 [2] | Emax [2] | Efficiency [2]
1 | CC[C@@H](NC(=O)c1cn(-c2ncccc2F)c2nc(N3C[C@@H](O)CC3=O)ccc2c1=O)C(F)(F)F [Example 140, 1-(3-Fluoropyridin-2-yl)-7-[(4S)-4-hydroxy-2-oxopyrrolidin-1-yl]-4-oxo-N-[(2R)-1,1,1-trifluorobutan-2-yl]-1,4-dihydro-1,8-naphthyridine-3-carboxamide] | 47 | 253 nM | 92% | –
2 | O=C(Nc1c(Cl)cccc1Cl)c1cn(-c2ncc(F)cc2F)c2nc(N3C[C@@H](O)[C@H](O)C3)ccc2c1=O [Example 67, N-(2,6-Dichlorophenyl)-1-(3,5-difluoropyridin-2-yl)-7-[(3R,4R)-3,4-dihydroxypyrrolidin-1-yl]-4-oxo-1,4-dihydro-1,8-naphthyridine-3-carboxamide] | 36 | 53 nM | 97% | –
3 | O=C(NC(c1cccc(F)c1)C(F)(F)F)c1cn(-c2ncc(F)cc2F)c2nc(N3C[C@@H](O)CC3=O)ccc2c1=O (stereo partly drawn) [Example 10, 1-(3,5-Difluoropyridin-2-yl)-7-[(4S)-4-hydroxy-2-oxopyrrolidin-1-yl]-4-oxo-N-[2,2,2-trifluoro-1-(3-fluorophenyl)ethyl]-1,4-dihydro-1,8-naphthyridine-3-carboxamide] | – | 25 nM | 95.5% | –
4 | CC1(O)CCN(c2ccc3c(=O)c(C(=O)Nc4c(Cl)cccc4Cl)cn(-c4ncc(F)cc4F)c3n2)C1 (racemic) [Example 69, N-(2,6-Dichlorophenyl)-1-(3,5-difluoropyridin-2-yl)-7-[3-hydroxy-3-methylpyrrolidin-1-yl]-4-oxo-1,4-dihydro-1,8-naphthyridine-3-carboxamide] | – | 365 nM | 92% | –
5 | CC(C)(NC(=O)c1cn(-c2ncc(F)cc2F)c2nc(N3CCCC[C@@H]3CO)ccc2c1=O)C(F)(F)C(F)(F)F [Example 173, 1-(3,5-Difluoropyridin-2-yl)-7-[(2R)-2-(hydroxymethyl)piperidin-1-yl]-4-oxo-N-(3,3,4,4,4-pentafluoro-2-methylbutan-2-yl)-1,4-dihydro-1,8-naphthyridine-3-carboxamide] | – | 88 nM | 100% | –
6 | O=C(NC(c1cccc(Cl)c1)C(F)(F)F)c1cn(-c2ncc(F)cc2F)c2nc(N3C[C@@H](O)CC3=O)ccc2c1=O (stereo partly drawn) [Example 7, N-[1-(3-Chlorophenyl)-2,2,2-trifluoroethyl]-1-(3,5-difluoropyridin-2-yl)-7-[(4S)-4-hydroxy-2-oxopyrrolidin-1-yl]-4-oxo-1,4-dihydro-1,8-naphthyridine-3-carboxamide] | – | 22 nM | 100% | –
7 | CC[C@@H](NC(=O)c1cn(-c2ncccc2Cl)c2nc(N3CC4CC4(O)C3)ccc2c1=O)C(F)(F)F (mixture of isomers) [Example 47, 1-(3-Chloropyridin-2-yl)-7-[1-hydroxy-3-azabicyclo[3.1.0]hex-3-yl]-4-oxo-N-[(2R)-1,1,1-trifluorobutan-2-yl]-1,4-dihydro-1,8-naphthyridine-3-carboxamide] | – | 640 nM | 89% | –
8 | CC1(O)CCN(c2ccc3c(=O)c(C(=O)N[C@H](C4CC4)C(F)(F)F)cn(-c4ncc(F)cc4Cl)c3n2)C1 (mixture of isomers) [Example 53, 1-(3-Chloro-5-fluoropyridin-2-yl)-N-[(1R)-1-cyclopropyl-2,2,2-trifluoroethyl]-7-[3-hydroxy-3-methylpyrrolidin-1-yl]-4-oxo-1,4-dihydro-1,8-naphthyridine-3-carboxamide] | – | 555 nM | 96.5% | –

The remaining lines, values ahead:

Row | Cooperativity (alpha factor) [1] | EC50 [2] | Emax [2] | Efficiency [2] | SMILES
9 | 34 | 67 nM | 87% | – | CCC(COC(F)(F)F)NC(=O)c1cn(-c2ncc(F)cc2F)c2nc(N3C[C@@H](O)CC3=O)ccc2c1=O (single isomer, unassigned) [Example 18]
10 | 41 | 24 nM | – | 100.00% | CC(NC(=O)c1cn(-c2ncc(F)cc2F)c2nc(N3C[C@@H](O)[C@H](O)C3)ccc2c1=O)C(F)(F)C(F)(F)F (single isomer, unassigned) [Example 90]
11 | 14 | 64 nM | 99% | – | CC[C@H](NC(=O)c1cn(-c2ncc(F)cc2F)c2nc(N3CC(C)CC3=O)ccc2c1=O)C(F)(F)F (stereo partly drawn) [Example 30, 1-(3,5-Difluoropyridin-2-yl)-7-[4-methyl-2-oxopyrrolidin-1-yl]-4-oxo-N-[(2S)-1,1,1-trifluorobutan-2-yl]-1,4-dihydro-1,8-naphthyridine-3-carboxamide]
12 | 38 | 86 nM | – | 91.50% | CCC(COC(F)(F)F)NC(=O)c1cn(-c2ncc(F)cc2F)c2nc(N3C[C@@H](O)CC3=O)ccc2c1=O (single isomer, unassigned) [Example 19]
13 | – | 26 nM | 100% | – | CCC(NC(=O)c1cn(-c2ncc(F)cc2F)c2nc(N3C[C@@H](O)[C@H](O)C3)ccc2c1=O)C(F)(F)C(F)(F)F (mixture of isomers) [Example 95, 1-(3,5-Difluoropyridin-2-yl)-7-[(3R,4R)-3,4-dihydroxypyrrolidin-1-yl]-4-oxo-N-[1,1,1,2,2-pentafluoropentan-3-yl]-1,4-dihydro-1,8-naphthyridine-3-carboxamide]
14 | – | 795 nM | 100% | – | O=C(N[C@@H](C1CC1)C(F)(F)F)c1cn(-c2ncc(F)cc2F)c2nc(N3C[C@H](O)[C@@H](O)C3)ccc2c1=O [Example 61, N-[(1S)-1-Cyclopropyl-2,2,2-trifluoroethyl]-1-(3,5-difluoropyridin-2-yl)-7-[(3S,4S)-3,4-dihydroxypyrrolidin-1-yl]-4-oxo-1,4-dihydro-1,8-naphthyridine-3-carboxamide]
15 | – | 19 nM | 100% | – | CC(C)C[C@H](NC(=O)c1cn(-c2ncc(F)cc2F)c2nc(N3C[C@@H](O)CC3=O)ccc2c1=O)C(F)(F)F [Example 75, 1-(3,5-Difluoropyridin-2-yl)-7-[(4S)-4-hydroxy-2-oxopyrrolidin-1-yl]-4-oxo-N-[(2S)-1,1,1-trifluoro-4-methylpentan-2-yl]-1,4-dihydro-1,8-naphthyridine-3-carboxamide]
16 | – | 56 nM | 100% | – | O=C(NC(C(F)(F)F)C(F)(F)F)c1cn(-c2ncc(F)cc2F)c2nc(N3CCCC[C@@H]3CO)ccc2c1=O [Example 178, 1-(3,5-Difluoropyridin-2-yl)-N-(1,1,1,3,3,3-hexafluoropropan-2-yl)-7-[(2R)-2-(hydroxymethyl)piperidin-1-yl]-4-oxo-1,4-dihydro-1,8-naphthyridine-3-carboxamide]
17 | – | 45 nM | 90% | – | CC[C@@H](NC(=O)c1cn(-c2ncc(F)cc2F)c2nc(N3CCCC(F)(F)C3)ccc2c1=O)C(F)(F)F [Example 72, 7-(3,3-Difluoropiperidin-1-yl)-1-(3,5-difluoropyridin-2-yl)-4-oxo-N-[(2R)-1,1,1-trifluorobutan-2-yl]-1,4-dihydro-1,8-naphthyridine-3-carboxamide]
18 | – | 90 nM | 90% | – | CC[C@H](NC(=O)c1cn(-c2ncc(F)cc2F)c2nc(N3C[C@@H](C)NC3=O)ccc2c1=O)C(F)(F)F [Example 143, 1-(3,5-difluoropyridin-2-yl)-7-[(4R)-4-methyl-2-oxoimidazolidin-1-yl]-4-oxo-N-[(2S)-1,1,1-trifluorobutan-2-yl]-1,4-dihydro-1,8-naphthyridine-3-carboxamide]
